Reference: US10328143B2, “Hemagglutinin-binding peptide” (priority 2014, dated 2019)

Test system: influenza virus H5N1-Vac3
Type: cell-based

Substance | anti-viral effect | anti-viral effect at low concentration
Cyclo(Ac-Trp-Thr-MeGly-Asp-MePhe-MePhe-Ser-MeSer-His-Tyr-Thr-Val-Pro-Dap-Cys)-amide [iHA-100-R14Dap] | high anti-viral effect | high anti-viral effect even when their concentration is low
Cyclo(Ac-Trp-Thr-MeGly-Asp-MePhe-MePhe-Ser-MeSer-His-Tyr-Thr-Val-Pro-Glu-Cys)-amide [iHA-100-R14E] | high anti-viral effect | 
Cyclo(Ac-Trp-Thr-MeGly-Asp-MePhe-MePhe-Ser-MeSer-His-Tyr-Thr-Val-Pro-Ala-Cys)-amide [iHA-100-R14A] | high anti-viral effect | high anti-viral effect even when their concentration is low
